Measurements as given in PubChem BioAssay AID1963985 (Molecular Pharmacology Branch, DTP, NCI, 2024).

Test system: 252836-082-R-J2-PDC tumor spheroids, viability
Assay: Anticancer human tumor 252836-082-R-J2-PDC patient-derived head and neck squamous cell carcinoma cell line growth inhibition [PI3K]
Settings: spheroids with HUVEC and MSC; for IC50: curve of first compound; for viability, T/C: stronger effect = lower value
Description: Combinatorial screen of targeted agents with the PI3K inhibitors inavolisib, alpelisib, duvelisib, and copanlisib in multi-cell type tumor spheroids
A high-throughput screen of multi-cell type tumor spheroids was designed to identify active combinations of targeted small molecules and PI3K pathway inhibitors. Complex spheroids include a stromal component modeled by human endothelial cells (HUVEC) and fibroblasts modeled by human mesenchymal stem cells (MSCs). The concentration ranges selected for each drug and investigational agent were based upon clinically achievable concentrations if the clinical Cmax of the agent was known.
Compounds. The drugs and investigational agents: inavolisib (NSC800729), alpelisib (NSC765974), duvelisib (NSC772469), copanlisib (NSC816437), ipatasertib (NSC767898), afuresertib (NSC778305), talazoparib (NSC767125), sapanisertib (NSC764658), selumetinib (NSC741078), tovorafenib (DAY101, NSC766906), vemurafenib (NSC761431), ravoxertinib (NSC781343), sotorasib (NSC818433), MRTX1133 (NSC 836407), abemaciclib (NSC 768073), palbociclib (NSC758247), venetoclax (NSC 766270), SY5609 (NSC837396), enzalutamide (NSC755605), and darolutamide (NSC825331), were obtained from the National Cancer Institute (NCI) Developmental Therapeutics Program Chemical Repository. The FDA-approved anticancer drug set is available from the NCI Developmental Therapeutics Program. […] The stock solutions were prepared in dimethyl sulfoxide (DMSO, Sigma-Aldrich, St. Louis, MO, cat. D2650) at 800-fold the tested concentration and stored at -70 degrees C prior to their use. All drugs and investigational agents were tested over a range starting from a high concentration at or near the clinical Cmax and decreasing in half-log increments. If the clinical Cmax for an agent had not been determined, the highest concentration tested was 10 microM.
Cell Culture. All cells were maintained in an incubator at 37 degrees C and 5% CO2 with 95% humidity. The PDC lines were cultured according to standard operating procedures established by the NCI PDMR (https://pdmr.cancer.gov/sops/default.htm). All PDCs were thawed and cultured in Matrigel-coated flasks prepared with a working solution of 1X Ham's F-12 nutrient mix, without supplementation (Invitrogen, Waltham, MA, cat. 11765054), 100 U/mL penicillin-streptomycin (Invitrogen, cat. 15140122), and 2.5% Matrigel (Corning Inc., Corning, NY, cat. 354248) for the first three passages. The 354836-022-R-J1-PDC, 475296-252-R-J1-PDC, and 997726-040-R-J2-PDC lines were cultured in 6A media, which includes advanced DMEM/F-12 (Thermo Fisher Scientific, cat. 12634028), 10 mM HEPES (Thermo Fisher Scientific, cat. 15630080), 1X GlutaMAX supplement (Thermo Fisher Scientific, cat. 35050061), 0.1 mg/mL primocin (InvivoGen, San Diego, CA, cat. ant-pm-2), 10% defined fetal bovine serum, heat inactivated (HyClone Laboratories Inc., Logan, UT, cat. SH30070.03HI), 50% L-WRN conditioned media (ATCC, cat. CRL-3276), 1.25 mM N-Acetyl-L-cysteine (Sigma-Aldrich, cat. A9165), 10 mM nicotinamide (Sigma-Aldrich, cat. N0636), 1X B-27 supplement (Thermo Fisher Scientific, cat. 17504044), 1X N-2 supplement (Thermo Fisher Scientific, cat. 17502048), and 10 microM Y-27632 dihydrochloride (Tocris Bioscience, Bristol, United Kingdom, cat. 1254). The 624824-186-R-J2-PDC line was cultured in 6C/Colon 1B media, which includes all 6A media components plus 50 ng/mL human EGF recombinant protein (Thermo Fisher Scientific, cat. PHG0311). […]
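Further: spheroids exposed to agents for seven days before readout.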
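Wherever viability, T/C is given: percent of vehicle DMSO control viability so 100% = untreated growth.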

Work on `CC(C)NCC(C(=O)N1CCN(c2ncnc3c2C(C)CC3O)CC1)c1ccc(Cl)cc1` (configuration not stated) + COc1c(OCCCN2CCOCC2)ccc2c3n(c(=NC(=O)c4cnc(N)nc4)nc12)CCN3 yielded an IC50 (second compound 0.00316 µM) of 1040 nM, an IC50 (second compound 0.01 µM) of 566 nM and an IC50 (second compound 0.0316 µM) of 285 nM. For the same compound, the IC50 (second compound 0.1 µM) was less than 31.6 nM, the IC50 (second compound 0.316 µM) was less than 31.6 nM and the IC50 (second compound 1 µM) was less than 31.6 nM. The viability, T/C (second compound 0.00316 µM, first compound 0.0316 µM) was 82.9%, the viability, T/C (second compound 0.00316 µM, first compound 0.1 µM) was 77.9% and the viability, T/C (second compound 0.00316 µM, first compound 0.316 µM) was 64.8%. It also gave a viability, T/C (second compound 0.00316 µM, first compound 1 µM) of 50.6%, a viability, T/C (second compound 0.00316 µM, first compound 3.16 µM) of 34.6% and a viability, T/C (second compound 0.00316 µM, first compound 10 µM) of 20.3%. It also gave a viability, T/C (second compound 0.01 µM, first compound 0.0316 µM) of 71.2%, a viability, T/C (second compound 0.01 µM, first compound 0.1 µM) of 64.3% and a viability, T/C (second compound 0.01 µM, first compound 0.316 µM) of 59.7%. The viability, T/C (second compound 0.01 µM, first compound 1 µM) was 41.3%, the viability, T/C (second compound 0.01 µM, first compound 3.16 µM) was 26.4% and the viability, T/C (second compound 0.01 µM, first compound 10 µM) was 15.4%. The viability, T/C (second compound 0.0316 µM, first compound 0.0316 µM) was 56.2%, the viability, T/C (second compound 0.0316 µM, first compound 0.1 µM) was 56.4% and the viability, T/C (second compound 0.0316 µM, first compound 0.316 µM) was 47.2%. It also gave a viability, T/C (second compound 0.0316 µM, first compound 1 µM) of 40%, a viability, T/C (second compound 0.0316 µM, first compound 3.16 µM) of 21.9% and a viability, T/C (second compound 0.0316 µM, first compound 10 µM) of 11.6%. The viability, T/C (second compound 0.1 µM, first compound 0.0316 µM) was 36.6%, the viability, T/C (second compound 0.1 µM, first compound 0.1 µM) was 30.3% and the viability, T/C (second compound 0.1 µM, first compound 0.316 µM) was 26%. The viability, T/C (second compound 0.1 µM, first compound 1 µM) was 24.7%, the viability, T/C (second compound 0.1 µM, first compound 3.16 µM) was 17.1% and the viability, T/C (second compound 0.1 µM, first compound 10 µM) was 10.2%. For the same compound, the viability, T/C (second compound 0.316 µM, first compound 0.0316 µM) was 14.3%, the viability, T/C (second compound 0.316 µM, first compound 0.1 µM) was 13.8% and the viability, T/C (second compound 0.316 µM, first compound 0.316 µM) was 11.6%. The viability, T/C (second compound 0.316 µM, first compound 1 µM) was 12.8%, the viability, T/C (second compound 0.316 µM, first compound 3.16 µM) was 8.52% and the viability, T/C (second compound 0.316 µM, first compound 10 µM) was 5.44%. The viability, T/C (second compound 1 µM, first compound 0.0316 µM) was 4.96%, the viability, T/C (second compound 1 µM, first compound 0.1 µM) was 3.28% and the viability, T/C (second compound 1 µM, first compound 0.316 µM) was 5.23%. For the same compound, the viability, T/C (second compound 1 µM, first compound 1 µM) was 4.34%, the viability, T/C (second compound 1 µM, first compound 3.16 µM) was 3.37% and the viability, T/C (second compound 1 µM, first compound 10 µM) was 3.42%.
